Consider 38 compounds from PubChem BioAssay (NCI).

Values joined by “and” are separate entries in the source; they are usually repeats but may differ in a detail not shown here. Identical values can stand only once.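 Assay format: 96-well plates, 48-hour exposure. GI50 marks 50% less growth. TGI: concentration producing complete growth inhibition.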 A value given as a limit tells only on which side of the number the result lay.

The assay has as its system MDA-MB-468 breast. As to the kind of experiment: inhibition of tumour cell growth, NCI panel, 48 h.
Regarding `COc1ccc(/C=C(\C)[N+](=O)[O-])cc1OC`, the GI50 was 1480 nM and the TGI is 3050 nM.
For `O=Nc1c(-c2c(O)[nH]c3ncccc23)[nH]c2ccccc12`, in that order: 4120 nM and above 100000 nM.
Take `CCOC(=O)c1c(NC(=O)c2cccc(C(F)(F)F)c2)sc2c3c(ccc12)OCN(C)C3`: the GI50 was 1520 nM and the TGI was determined as 2970 nM.
For `COc1ccc2c(c1)C(=O)c1c-2c(OCCN(C)C)nc2ccccc12`, in that order: 2760 nM and 11300 nM.
`CN1CCN(CCCCCN=c2cc3c(=O)n(CCCCCN4CCN(C)CC4)c(=O)c4c(NCCCCCN5CCN(C)CC5)cc5c(O)n(CCCCCN6CCN(C)CC6)c(=O)c2c5c4-3)CC1`: the GI50 was 2260 nM and the TGI was 6310 nM.
With `c1ccc(N=C2c3ccsc3C(=Nc3ccccc3)c3ccsc32)cc1`, the GI50 was 1780 nM and the TGI came out at 3610 nM.
Turning to `FC(F)(F)c1cccc(-c2nn3ncccc3c2-c2ccnc(Nc3ccc4c(c3)OCCO4)n2)c1`, the GI50 is 3970 nM and the TGI was found to be 17900 nM.
`O=C1C(OCCOc2ccccc2)=C(OCCOc2ccccc2)C(=O)c2ccccc21`: the GI50 was 9920 nM and the TGI was above 100000 nM.
In the same order, the values of `Oc1cccc2c1NCCC2` are 1830 nM and 8490 nM.
For `O=C(Nc1ccccc1OC(=O)c1ccccc1)c1ccccc1`, in that order: 5640 nM and above 100000 nM.
As to `C=CCc1cc(Nc2c3ccc(Cl)cc3nc3ccc(OC)cc23)cc(CN(CC)CC)c1O`, the GI50 was 546 nM and the TGI was 3240 nM.
For `COc1cc(C(=O)c2cc(C)c3[nH]c4ccc(O)cc4c3c2C)cc(OC)c1OC`, the GI50 is below 15.7 nM and the TGI is 1060 nM.
In the same order, the values of `CCc1c(C)nc2sc3c(N)ncnc3c2c1C` are above 25000 nM and above 25000 nM.
On to `Cc1[nH]c(-c2cc(N)ccc2Cl)c2c1C(=O)CCCC2`, for which the GI50 is 1900 nM and the TGI was 9460 nM.
For `COc1ccc(/C=C(/C)[N+](=O)[O-])cc1OC`, the GI50 was 1340 nM and 1150 nM; the TGI was 2770 nM and 2530 nM.
In the case of `Nc1n[nH]c2ccc([C@@H]3Nc4cc5c(cc4[C@H]4C6CCC(C6)[C@@H]34)C(=O)NC5)cc12` (stereo not given in full), the GI50 was 323 nM and the TGI was above 100000 nM.
For the compound `CN1CCc2nc3sc(C(N)=O)c(N)c3c(-c3cccs3)c2C1`, the GI50 is 1750 nM and the TGI is 4860 nM.
Take `C[C@@H]1Cc2cc(O)ccc2[C@H]2CC[C@]3(C)/C(=C/COCCN(C)C)CC[C@H]3[C@H]12` (tested in a mixture with another compound): the GI50 is 1070 nM and the TGI worked out at 3200 nM.
For `COc1cc(C(=O)Nc2cc(O)c(CC=C(C)C)c(O)c2)cc2c1O[C@]1(C)CC[C@@H](O)C(C)(C)[C@H]1C2`, the GI50 was 648 nM and the TGI was found to be 32900 nM.
For `COc1cc(-c2nn(-c3cccc(NC(=O)CCN4CCN(Cc5ccccc5)CC4)c3)cc2-c2ccncc2)ccc1Cl`, in that order: 433 nM and 16200 nM.
For `N/C(=N\OC(=O)c1ccccc1)C(Cc1ccccc1)C(=O)NOC(=O)c1ccccc1` (stereo not given), in that order: 4100 nM and 17500 nM.
For `CC1C=CC(OC(=O)C(C)(O)CCC(O)(C(=O)OC2CC(O)C(C(C)C)CC2(C)O)C(C)C)(C(C)C)CC1` (stereo not given), in that order: 360 nM and 1220 nM.
As for `Oc1c(-c2cc(C(F)(F)F)[nH]n2)cc(Cl)c(OCc2ccc(Cl)cc2)c1-c1ccc(Cl)c(C(F)(F)F)c1`, the GI50 was 208 nM and the TGI turned out to be 1660 nM.
As for `N#CCCNc1nonc1-c1nc2ccccc2n1CC(=O)c1ccc(NC(=O)[C@@H](N)CCCCN)cc1`, the GI50 was 23.6 nM.
As for `Cc1ccncc1C(N)=O`, the GI50 was above 100000 nM and the TGI was above 100000 nM.
On to `COc1cc2c(cc1F)C(c1ccccc1Cl)=Nc1c(n[nH]c1C)N2`, for which the GI50 was 342 nM and the TGI stood at 3730 nM.
In the same order, the values of `COc1cccc(Oc2ccccc2NC(=O)CNC(=O)c2cccc3ccccc23)c1` are 331 nM and above 25000 nM.
With `COc1ccc(Nc2ccnc(N3CCN(c4ccnc5cc(Cl)ccc45)CC3)n2)cc1`, the GI50 is 1500 nM and the TGI is above 100000 nM.
`COc1ccc2c(-c3ccnc(Nc4cccc(OC(F)(F)F)c4)n3)cnn2n1`: the GI50 was 1260 nM and the TGI turned out to be 4690 nM.
For the compound `COc1ccc(Nc2ccc([N+](=O)[O-])cc2[N+](=O)[O-])cc1CN(CCCl)CCCl`, the GI50 is 1990 nM and the TGI was 5090 nM.
Take `CCN1C(=O)N(CC)C2C1NN=c1s/c(=C\c3ccc(F)cc3)c(=O)n12` (stereo not given): the GI50 is 168 nM and the TGI was above 100000 nM.
In the same order, the values of `O=c1c2cc(F)ccc2sc2c(NCCCNCCO)nc3ccccc3c12` are 1090 nM and 2430 nM.
As for `C[n+]1c2ccccc2nc2c(N)cc(N)cc21`, the GI50 was 1180 nM and the TGI worked out at 4980 nM.
As for `O=C(CSc1nnc(-c2ccc(Cl)cc2)n1-c1ccccc1)Nc1ccc(Cl)cc1`, the GI50 was 2830 nM and the TGI came out at 8270 nM.
Consider `CC1c2ccccc2CCN1c1ccc(CO)c(Cl)c1` (stereo not given), for which the GI50 is 15.1 nM and the TGI worked out at 39.3 nM.
As for `CC(C)C[C@H](NC(=O)CCn1ccc2ccccc2c1=O)B(O)O`, the GI50 is 1380 nM and the TGI turned out to be 7080 nM.
For the compound `COc1cc(/C=C/c2ccc3c(Br)cc(Br)c(O)c3n2)ccc1O`, the GI50 is 1380 nM and the TGI is 5290 nM.
`O=C(CN1N=C(c2ccc(F)cc2)CCC1=O)Nc1nc2ccccc2s1`: the GI50 is 21100 nM and the TGI was determined as 85900 nM.
